Patent US20050181076A1, “Compositions and methods for treatment of diabetes” (priority 1999, published 2005)

Assays:
[1] = tested on: diabetics; test: Brickellia flavonoids administered to diabetics; format: in vivo; conditions: for results in diabetics compared with the extract: flavonoids extracted and fractionated from Brickellia californica; for effectiveness in treating diabetes: alone or in combination
From the text: The flavonoids specifically used were dihydrokaemferol and apigenin, a flavone. […] I have discovered an underlying “molecular switch” that controls both forms of diabetes. This “switch” can be operated by luteolin and similar flavonoids.

[2] = tested on: Type 1 (BB/Wor) diabetic rats; test: single luteolin treatment in chronic Type I diabetic rats, blood glucose 0-6 hours; format: in vivo, rat; conditions: for average blood glucose at 6 hours: from 415 (insulin) and 445 (luteolin) mg/dl at time 0; for decrease in blood glucose levels: within 6 hours, luteolin 3 mg intragastrically, PZI insulin 0.9-1.2 mU/day subcutaneous
Protocol: Animal tests of luteolin were made at BRM (Biomedical Research Models, Inc.) an East coast contract research organization (CRO) that specializes in diabetes research. […] Historically, these strains have been widely used in similar pre-clinical studies to predict anti-diabetogenic efficacy. […] In this study, lean male diabetics were randomly assigned to 3 treatment groups (3-4 rats/group). […] Blood glucose was evaluated from time 0 through 6 hours (11 AM-5 PM). […] This response was fully consistent with prior work in the Type I rat model. […] In comparison, there was no reduction in the hyperglycemic state in the control group over the same interval (414 to 404 mg/dl).

[3] = molecular target: Kv1.3 voltage gated potassium channel (Homo sapiens, UniProt P22001); test: patch clamp analysis of Kv1.3 block; format: cell-based
From the text: When the toxic CD8^− Natural Killer Cells combines with the CD4^− Helper T Cells at cystein they electronically stimulate calmodulin. This voltage sensor activates one of the 80+ super gene channels necessary for the activation of the CD4^− and CD8^− T Cells, Kv1.3 a voltage gated potassium channel. If this channel is not activated by calmodulin the T-Cells remain in their resting states. […] There are 200 pores in a resting Beta cell. When cell potential reaches 1.3 nVolts, the Kv1.3, voltage gated potassium channel opens to expose the tyrosine kinase tails. These kinases when stimulated turn on the ras-Oncogene, a cancer promoter, which turns on Protein Kinase C, another tumor promoter. These drive the Nuclear Factors of the Activated T-Cell, such as cAMP; which stimulates the susceptibility genes associated with diabetes such as those on chromosome 19q13.3. These in turn produce InterLeukin-2, an inflammatory cytokine messenger signaling further T-Cell proliferation. When CD8^− cells sample the external receptors of the Beta cell, they find and bind to laminin to sites, such as AGM1, and releases InterLeukin-2 upon calcium loading. This inflammatory cytokine causes cell activation and suppression of insulin release. […]

[4] = tested on: Type II (BBZDR/Wor) diabetic rats; test: luteolin dose study in chronic Type 2 diabetic rats over 24 hr; format: in vivo, rat
Protocol: Animal tests of luteolin were made at BRM (Biomedical Research Models, Inc.) an East coast contract research organization (CRO) that specializes in diabetes research. […] Historically, these strains have been widely used in similar pre-clinical studies to predict anti-diabetogenic efficacy.
First, a 24 hour baseline study was performed on 9 chronic Type 2 rats. We found no significant change in hyperglycemia over this 24 hour period of analysis in the diabetic rats. […] Blood glucose analysis was evaluated every 2 hours.
Unfortunately, that animal died sometime before the 24 hr time point as a result of an accidental perforation of the esophagus during the administration of drug.

[5] = tested on: Type II (BBZDR/Wor) diabetic rats; test: extended (two weeks) luteolin treatment of obese Type II diabetic rats; format: in vivo, rat
From the text: In the next experiment we elected to provide these same rats with a standardized dose over an extended period of treatment. […] The data were expressed for each rat as a percentage change in blood glucose level relative to each individual pre-treatment level.

[6] = tested on: diabetic test animals (rats and mice); test: Brickellia extract and flavonoids in diabetic test animals; format: in vivo
Protocol: It is believed that the Brickellia californica extract includes the flavonoids dihydrokaemferol, apigenin, luteolin, myricetin and quercetin. Further, the many other species of Brickellia contain these, or similar flavonoids, albeit in different proportions, and should also be effective in treatment of diabetes. Experiments with diabetic test animals (rats and mice) were carried out. […] Further, the administration of synthetic versions of the Brickellia flavonoids were also effective at lowering glucose levels.

Kv1.3 voltage gated potassium channel, sequence (P22001 whole entry): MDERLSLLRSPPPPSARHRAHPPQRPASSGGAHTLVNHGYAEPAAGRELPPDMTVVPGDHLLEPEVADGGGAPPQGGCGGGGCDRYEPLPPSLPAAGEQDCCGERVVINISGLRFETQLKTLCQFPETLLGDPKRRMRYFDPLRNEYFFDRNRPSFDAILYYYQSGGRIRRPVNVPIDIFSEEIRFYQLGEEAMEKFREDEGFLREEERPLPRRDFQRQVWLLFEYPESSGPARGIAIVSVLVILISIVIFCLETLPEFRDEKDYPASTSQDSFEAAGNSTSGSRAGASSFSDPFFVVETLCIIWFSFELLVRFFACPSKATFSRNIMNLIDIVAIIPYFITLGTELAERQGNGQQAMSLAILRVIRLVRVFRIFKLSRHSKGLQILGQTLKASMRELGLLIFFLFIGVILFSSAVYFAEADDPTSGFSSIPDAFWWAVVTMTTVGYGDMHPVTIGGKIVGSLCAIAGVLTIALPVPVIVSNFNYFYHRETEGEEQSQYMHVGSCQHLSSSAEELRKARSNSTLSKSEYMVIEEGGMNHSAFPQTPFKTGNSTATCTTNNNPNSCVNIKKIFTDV

O=c1cc(-c2ccc(O)cc2)oc2cc(O)cc(O)c12 [apigenin] was tested, and the “results in diabetics compared with the extract” value [1] was “results similar to those produced by the extract”.

For O=c1c(O)c(-c2cc(O)c(O)c(O)c2)oc2cc(O)cc(O)c12 [myricetin], the “effectiveness in treating diabetes” value [1] was “effective in treating diabetes”.

In the case of O=c1cc(-c2ccc(O)c(O)c2)oc2cc(O)cc(O)c12 [luteolin], the “average blood glucose at 6 hours” value [2] is reported as 307 mg/dL, the “decrease in blood glucose levels” value [2] is reported as 31% and the “block of Kv1.3 channel at 100 nM” value ([3]; luteolin tested at 100 nM, cell remained in its resting state) is reported as “blocked completely”. For the same compound, the “block of Kv1.3 channel” value ([3]; patch clamp analysis) was “blocks this channel”, the “decrease in blood glucose levels, 50 mg three times a day” value ([4]; Type 2 diabetic rats, 150 mg total, within 24 hr) was 10.2% and the “drop in blood glucose, 150 mg three times a day” value ([4]; Type 2 diabetic rats, 450 mg total, 24 hr) was 22.9%. For the same compound, the “decrease in glucose, 250 mg three times a day” value ([4]; Type 2 diabetic rats, 750 mg total, 24 hr) was 27.7%, the “reduction of hyperglycemia over all doses” value ([4]; Type II diabetic rats, over a 24 hour period, dose-dependent) was 10-28% and the “reduction of blood glucose in one rat” value ([4]; one Type 2 rat, intermediate dose (150 mg), within 18 hr) was 52%. For the same compound, the “blood glucose of one rat after treatment” value ([4]; one Type 2 rat, intermediate dose, from 777 mg/dl, within 18 hr) was 372 mg/dL, the “effectiveness in treating diabetes” value [1] was “effective in treating diabetes” and the “average drop of blood glucose levels” value ([5]; Type II rats, 50 mg 3x/day for two weeks) was 41.1%. The “average blood glucose after treatment” value ([5]; Type II rats, 50 mg 3x/day for two weeks, from 660 mg/dl) was 389 mg/dL, the “increase in blood glucose in one rat” value ([5]; one rat with esophageal fistula that likely prohibited effective dosing, 50 mg 3x/day two weeks) was 9.3% and the “rank among treatments involving a single flavonoid” value [6] was “the most effective agent”.

For insulin [reference compound], the “average blood glucose at 6 hours” value [2] was 112 mg/dL and the “decrease in blood glucose levels” value [2] was 75%.

In the case of O=C1c2c(O)cc(O)cc2O[C@H](c2ccc(O)cc2)[C@H]1O [dihydrokaemferol], the “results in diabetics compared with the extract” value [1] is reported as “results similar to those produced by the extract”.
